Drawing on patent publication US20260138988A1, “Spiropyrrolidine Derived Antiviral Agents” (Enanta Pharmaceuticals, Inc., priority 2021, published 2026), this text covers IC50 for 51 molecules.

This test has as its target SARS-CoV-2 3CL-protease (Severe acute respiratory syndrome coronavirus 2, UniProt P0DTD1). Kind of test: SARS-CoV-2 3C-Like (3CL) Protease Fluorescence Assay (FRET). The format is biochemical. The settings on record: SARS-CoV-2 3CL-protease 10 nM, test compounds 0-10 μM, duplicate, read-out: IC50.
Consider `CC(C)C(NC(=O)C(F)(F)F)C(=O)N1CC[C@H](c2ccccc2)[C@H]1C(=O)N1C[C@]2(C[C@H]1C#N)C(=O)Nc1ccccc12` (stereo partly drawn) [Example 344], for which the IC50 (in general, the concentration that inhibits the measured activity by half) was below 0.1 µM. Then `CC(C)C[C@H](C(=O)N1C[C@]2(C[C@H]1C#N)C(=O)Nc1ccccc12)n1cccc(NC(=O)OC(C)(C)C)c1=O` [Example 360], with below 0.1 µM; and `C[C@H](NC(=O)C(C)(F)F)C(=O)N(C)[C@@H](Cc1ccccc1)C(=O)N1C[C@]2(C[C@H]1C#N)C(=O)Nc1ccccc12` [Example 269], with below 0.1 µM; and `CC(N[C@@H](C)C(=O)N(C)[C@@H](CC(C)(C)C)C(=O)N1C[C@]2(C[C@H]1C#N)C(=O)Nc1ccccc12)C(F)(F)F` (stereo partly drawn) [Example 299], with below 0.1 µM.

In the case of `C[C@H](NC(=O)C(F)(F)F)C(=O)N(C)[C@@H](C)C(=O)N1C[C@]2(C[C@H]1C#N)C(=O)Nc1ccccc12` [Example 204], the IC50 was below 0.1 µM. Then `CC(C)C[C@@H](C(=O)N1C[C@]2(C[C@H]1C#N)C(=O)Nc1ccccc12)N(C)C(=O)[C@H](C)NC(=O)CC(F)(F)F` [Example 266], with below 0.1 µM; and `CN(C(=O)[C@@H]1C[C@@H]2CCCC[C@@H]2N1C(=O)C(F)(F)F)[C@@H](CC(C)(C)C)C(=O)N1C[C@]2(C[C@H]1C#N)C(=O)Nc1ccccc12` [Example 177], with 0.1 to 1 µM; and `CC(C)C[C@@H](C(=O)N1C[C@]2(C[C@H]1C#N)C(=O)Nc1ccccc12)N(C)C(=O)[C@@H]1[C@@H]2C[C@@H]2CN1C1CC1` [Example 252], with 0.1 to 1 µM.

Turning to `CC(C)(C)C[C@H](NC(=O)[C@H](CC1CC1)NC(=O)c1cc(F)c2nn(C3CC3)cc2c1)C(=O)N1C[C@]2(C[C@H]1C#N)C(=O)Nc1ccccc12` [Example 305], the half-maximal inhibitory concentration (IC50) is below 0.1 µM. Then `CC(C)N1[C@H](C(=O)N(C)[C@@H](CC(C)(C)C)C(=O)N2C[C@]3(C[C@H]2C#N)C(=O)Nc2ccccc23)C[C@@H]2CCC[C@@H]21` [Example 178], with below 0.1 µM. Then `CC(C)(C)C[C@H](NC(=O)[C@H](CC1CC1)NC(=O)c1ccc(C(C)(C)C)cc1)C(=O)N1C[C@]2(C[C@H]1C#N)C(=O)Nc1ccccc12` [Example 304], with below 0.1 µM; and `CN(C(=O)[C@@H]1C[C@@H](c2ccccc2)CN1)[C@@H](CC(C)(C)C)C(=O)N1C[C@]2(C[C@H]1C#N)C(=O)Nc1ccccc12` [Example 232], with below 0.1 µM. Then `CC(C)(C)C[C@H](NC(=O)[C@@H](NC(=O)C1(c2ccccc2)CC1)c1ccccc1)C(=O)N1C[C@]2(C[C@H]1C#N)C(=O)Nc1ccccc12` [Example 248], with below 0.1 µM. In the case of `CC(C)C[C@H](C(=O)N1C[C@]2(C[C@H]1C#N)C(=O)Nc1ccccc12)n1cccc(NS(=O)(=O)C2CC2)c1=O` [Example 359], the IC50 lay in the range of 0.1 to 1 µM. Then `CC(C)(C)C[C@H](NC(=O)[C@@H](NC(=O)C1CCC1)c1ccccc1)C(=O)N1C[C@]2(C[C@H]1C#N)C(=O)Nc1ccccc12` [Example 246], with below 0.1 µM; and `CN(C(=O)[C@@H]1CC[C@@H](C2CC2)N1)[C@@H](CC(C)(C)C)C(=O)N1C[C@]2(C[C@H]1C#N)C(=O)Nc1ccccc12` [Example 228], with below 0.1 µM. Then `C[C@H](NC(=O)c1cccc2cc(F)ccc12)C(=O)N(C)[C@@H](CC(C)(C)C)C(=O)N1C[C@]2(C[C@H]1C#N)C(=O)Nc1ccccc12` [Example 215], with below 0.1 µM.

Regarding `CC(C)C[C@@H](C(=O)N1C[C@]2(C[C@H]1C#N)C(=O)Nc1ccccc12)N(C)C(=O)[C@H](C)NC(=O)C1(F)C(F)(F)C1(F)F` [Example 275], the IC50 is below 0.1 µM. Then `CC(C)CC(NC(=O)C(F)(F)F)C(=O)N1CC[C@H](c2ccccc2)[C@H]1C(=O)N1C[C@]2(C[C@H]1C#N)C(=O)Nc1ccccc12` (stereo partly drawn) [Example 345], with below 0.1 µM.

Consider `CC(C)[C@H](Nc1ccc(F)cc1)C(=O)N[C@@H](CC(C)(C)C)C(=O)N1C[C@]2(C[C@H]1C#N)C(=O)Nc1ccccc12` [Example 337], for which the IC50 lay within 0.1 to 1 µM. `CC(C)(C)C[C@H](NC(=O)[C@H](CC1CC1)NC(=O)c1cn(C2CC2)nn1)C(=O)N1C[C@]2(C[C@H]1C#N)C(=O)Nc1ccccc12` [Example 324]: the IC50 was below 0.1 µM. Regarding `CC(C)C[C@@H](C(=O)N1C[C@]2(C[C@H]1C#N)C(=O)Nc1ccccc12)N(C)C(=O)[C@H](C)NC(=O)C1(F)CCCC1` [Example 143], the IC50 is below 0.1 µM. Then `CC[C@H](NC(=O)C(F)(F)F)C(=O)N(C)[C@@H](CC(C)C)C(=O)N1C[C@]2(C[C@H]1C#N)C(=O)Nc1ccccc12` [Example 199], with below 0.1 µM; and `CC(C)C[C@@H](C(=O)N1C[C@]2(C[C@H]1C#N)C(=O)Nc1ccccc12)N(C)C(=O)[C@H](C)NC(=O)C1(C(F)(F)F)CC1` [Example 297], with below 0.1 µM; and `CC(C)N1[C@H](C(=O)N(C)[C@@H](CC(C)(C)C)C(=O)N2C[C@]3(C[C@H]2C#N)C(=O)Nc2ccccc23)CC[C@@H]1C(F)(F)F` [Example 235], with 0.1 to 1 µM. Then `CCN(C(=O)[C@H](C)NC(=O)C12CC3CC(CC(C3)C1)C2)[C@@H](CC(C)C)C(=O)N1C[C@]2(C[C@H]1C#N)C(=O)Nc1ccccc12` [Example 368], with below 0.1 µM; and `CC(C)(C)C[C@H](NC(=O)[C@@H](NC(=O)C(F)(F)c1ccccc1)c1ccccc1)C(=O)N1C[C@]2(C[C@H]1C#N)C(=O)Nc1ccccc12` [Example 249], with below 0.1 µM. Then `CCN(C(=O)[C@H](C)NC(=O)c1ccc(Cl)c(Cl)c1)[C@@H](CC(C)C)C(=O)N1C[C@]2(C[C@H]1C#N)C(=O)Nc1ccccc12` [Example 364], with below 0.1 µM; and `CC(C)(C)C[C@H](NC(=O)[C@H](CC1CC1)NC(=O)C1CCC1)C(=O)N1C[C@]2(C[C@H]1C#N)C(=O)Nc1ccccc12` [Example 320], with below 0.1 µM. Turning to `C[C@@H]1NC(=O)CCCCc2ccc3c(c2)[C@@]2(C[C@@H](C#N)N(C2)C(=O)[C@H](CC(C)(C)C)N(C)C1=O)C(=O)N3` [Example 377], the IC50 was below 0.1 µM. Then `C[C@H](NC(=O)c1cc2ccccc2n1-c1ccccc1)C(=O)N(C)[C@@H](CC(C)(C)C)C(=O)N1C[C@]2(C[C@H]1C#N)C(=O)Nc1ccccc12` [Example 281], with below 0.1 µM; and `C[C@H](NC(=O)C(F)(F)C(F)(F)F)C(=O)N(C)[C@@H](CC1CC1)C(=O)N1C[C@]2(C[C@H]1C#N)C(=O)N(COP(=O)(O)O)c1ccccc12` [Example 352], with below 0.1 µM. Regarding `COCCOCCC(=O)N[C@@H](C)C(=O)N(C)[C@@H](CC(C)(C)C)C(=O)N1C[C@]2(C[C@H]1C#N)C(=O)Nc1ccccc12` [Example 263], the IC50 is below 0.1 µM. Then `C[C@H](NC(=O)c1cc(F)cc2ccccc12)C(=O)N(C)[C@@H](CC(C)(C)C)C(=O)N1C[C@]2(C[C@H]1C#N)C(=O)Nc1ccccc12` [Example 292], with below 0.1 µM; and `C[C@H](NC(=O)c1ccc(F)cc1)C(=O)N(C)[C@@H](Cc1ccccc1)C(=O)N1C[C@]2(C[C@H]1C#N)C(=O)Nc1ccccc12` [Example 270], with below 0.1 µM; and `C[C@H](NC(=O)C1(F)C(F)(F)C1(F)F)C(=O)N(C)[C@@H](CC1CC1)C(=O)N1C[C@]2(C[C@H]1C#N)C(=O)Nc1ccccc12` [Example 195], with below 0.1 µM. Then `CN(C(=O)[C@@H]1C[C@@H](C(F)(F)F)CN1)[C@@H](CC(C)(C)C)C(=O)N1C[C@]2(C[C@H]1C#N)C(=O)Nc1ccccc12` [Example 229], with below 0.1 µM. On to `C[C@H](NC(=O)C(F)(F)F)C(=O)N(C)[C@@H](Cc1ccccc1)C(=O)N1C[C@]2(C[C@H]1C#N)C(=O)Nc1ccccc12` [Example 267], for which the IC50 is below 0.1 µM. Then `CC(C)C[C@@H](C(=O)N1C[C@]2(C[C@H]1C#N)C(=O)Nc1ccc(Cl)cc12)N(C)C(=O)[C@H](C)NC(=O)C(F)(F)C(F)(F)F` [Example 168], with below 0.1 µM. Regarding `CC(C)N1[C@H](C(=O)N(C)[C@@H](CC(C)(C)C)C(=O)N2C[C@]3(C[C@H]2C#N)C(=O)Nc2ccccc23)C[C@@H]2CCCC[C@@H]21` [Example 180], the half-inhibitory concentration (IC50) was below 0.1 µM. Then `CCN1[C@@H]2C[C@@H]2C[C@H]1C(=O)N(C)[C@@H](CC(C)C)C(=O)N1C[C@]2(C[C@H]1C#N)C(=O)Nc1ccccc12` [Example 261], with below 0.1 µM; and `CC(C)N1c2ccccc2C[C@H]1C(=O)N(C)[C@@H](CC(C)(C)C)C(=O)N1C[C@]2(C[C@H]1C#N)C(=O)Nc1ccccc12` [Example 184], with below 0.1 µM; and `CC(C)C[C@@H](C(=O)N1C[C@]2(C[C@H]1C#N)C(=O)Nc1ccccc12)n1cccc(NC(=O)OC(C)(C)C)c1=O` [Example 354], with 0.1 to 1 µM.

With `CC(C)(C)C[C@H](NC(=O)[C@@H](Nc1ccc(F)cc1)C1CC1)C(=O)N1C[C@]2(C[C@H]1C#N)C(=O)Nc1ccccc12` [Example 338], the IC50 is below 0.1 µM.

In the case of `CC(C)(C)C[C@H](NC(=O)[C@H](CC1CC1)NC1CCCCC1)C(=O)N1C[C@]2(C[C@H]1C#N)C(=O)Nc1ccccc12` [Example 316], the IC50 was in the range of 0.1 to 1 µM.

In the case of `CN1C[C@H](C(F)(F)F)C[C@H]1C(=O)N(C)[C@@H](CC(C)(C)C)C(=O)N1C[C@]2(C[C@H]1C#N)C(=O)Nc1ccccc12` [Example 230], the IC50 fell in the range of 0.1 to 1 µM. Then `CC(C)(C)C[C@H](NC(=O)[C@H](CC1CC1)NC(=O)C1CC2(CCC2)C1)C(=O)N1C[C@]2(C[C@H]1C#N)C(=O)Nc1ccccc12` [Example 321], with below 0.1 µM; and `C[C@H](NC(=O)c1cc2c(F)cc(F)c(F)c2[nH]1)C(=O)N(C)[C@@H](CC(C)(C)C)C(=O)N1C[C@]2(C[C@H]1C#N)C(=O)Nc1ccccc12` [Example 208], with below 0.1 µM; and `CN(C(=O)[C@@H]1CC[C@H](C(F)(F)F)N1C)[C@@H](CC(C)(C)C)C(=O)N1C[C@]2(C[C@H]1C#N)C(=O)Nc1ccccc12` [Example 234], with below 0.1 µM. Then `C[C@H](NC(=O)C(F)(F)C(F)(F)F)C(=O)N(C)[C@@H](CC(C)(C)C)C(=O)N1C[C@]2(C[C@H]1C#N)C(=O)Nc1ccc(Cl)cc12` [Example 174], with below 0.1 µM; and `CC(C)(C)C[C@H](NC(=O)[C@H](CC1CC1)NS(=O)(=O)c1cnn(-c2ccc(F)cc2)c1)C(=O)N1C[C@]2(C[C@H]1C#N)C(=O)Nc1ccccc12` [Example 314], with 0.1 to 1 µM.
